# Legend:
# [1] = molecular target: Sodium-dependent serotonin transporter (Homo sapiens, UniProt P31645)
# [2] = molecular target: T1, Alpha-2A adrenergic receptor (Homo sapiens, UniProt P08913); format: functional, cell-based
# T1 sequence (P08913 whole entry): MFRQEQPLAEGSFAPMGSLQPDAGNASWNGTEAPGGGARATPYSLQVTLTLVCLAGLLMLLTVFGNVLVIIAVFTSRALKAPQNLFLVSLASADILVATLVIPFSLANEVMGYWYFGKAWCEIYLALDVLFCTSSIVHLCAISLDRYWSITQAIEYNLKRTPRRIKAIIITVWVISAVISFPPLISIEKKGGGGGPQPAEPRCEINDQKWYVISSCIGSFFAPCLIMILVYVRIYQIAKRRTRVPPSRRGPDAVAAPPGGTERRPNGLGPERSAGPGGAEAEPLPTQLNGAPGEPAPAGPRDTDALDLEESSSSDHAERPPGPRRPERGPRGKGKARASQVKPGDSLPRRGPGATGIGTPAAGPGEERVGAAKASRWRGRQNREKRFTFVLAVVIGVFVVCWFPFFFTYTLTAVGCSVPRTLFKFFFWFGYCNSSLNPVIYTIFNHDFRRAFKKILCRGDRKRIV
# [3] = molecular target: Histamine H2 receptor (Homo sapiens, UniProt P25021); format: functional, cell-based
# Sequence of Histamine H2 receptor (P25021 whole entry): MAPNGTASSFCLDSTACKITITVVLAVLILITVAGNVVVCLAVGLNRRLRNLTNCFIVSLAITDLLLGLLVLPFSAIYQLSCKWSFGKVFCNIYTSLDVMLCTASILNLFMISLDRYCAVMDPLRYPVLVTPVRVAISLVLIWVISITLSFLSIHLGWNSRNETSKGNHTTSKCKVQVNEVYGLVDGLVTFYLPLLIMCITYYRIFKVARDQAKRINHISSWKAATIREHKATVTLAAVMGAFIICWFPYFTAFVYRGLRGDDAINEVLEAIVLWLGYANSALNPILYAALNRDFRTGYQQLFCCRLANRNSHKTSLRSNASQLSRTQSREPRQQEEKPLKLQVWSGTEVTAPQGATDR
# [4] = molecular target: T2, 5-hydroxytryptamine receptor 1A (Homo sapiens, UniProt P08908); format: functional, cell-based
# T2 sequence (P08908 whole entry): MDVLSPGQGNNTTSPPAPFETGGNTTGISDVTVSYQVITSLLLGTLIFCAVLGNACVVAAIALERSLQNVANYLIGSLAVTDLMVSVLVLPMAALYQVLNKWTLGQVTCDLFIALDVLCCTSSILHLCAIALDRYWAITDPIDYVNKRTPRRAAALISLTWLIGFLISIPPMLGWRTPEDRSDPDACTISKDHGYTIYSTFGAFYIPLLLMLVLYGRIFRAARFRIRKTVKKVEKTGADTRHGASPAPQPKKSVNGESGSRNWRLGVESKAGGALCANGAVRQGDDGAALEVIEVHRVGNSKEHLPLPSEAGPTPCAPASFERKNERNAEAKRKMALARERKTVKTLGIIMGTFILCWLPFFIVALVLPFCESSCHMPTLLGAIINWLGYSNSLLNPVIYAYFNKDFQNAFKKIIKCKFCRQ
# [5] = molecular target: Delta-type opioid receptor (Homo sapiens, UniProt P41143)
# Sequence of Delta-type opioid receptor (P41143 whole entry): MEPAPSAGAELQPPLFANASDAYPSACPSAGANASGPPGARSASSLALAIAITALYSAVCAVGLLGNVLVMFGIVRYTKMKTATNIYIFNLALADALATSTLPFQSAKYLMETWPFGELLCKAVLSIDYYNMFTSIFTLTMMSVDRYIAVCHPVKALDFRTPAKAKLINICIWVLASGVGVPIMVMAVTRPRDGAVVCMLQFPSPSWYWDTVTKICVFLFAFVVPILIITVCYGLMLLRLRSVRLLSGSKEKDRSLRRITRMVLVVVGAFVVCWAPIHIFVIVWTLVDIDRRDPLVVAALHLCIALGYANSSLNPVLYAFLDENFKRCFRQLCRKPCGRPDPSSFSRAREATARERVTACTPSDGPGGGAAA
# [6] = molecular target: T3, Progesterone receptor (Homo sapiens, UniProt P06401); format: functional
# T3 sequence (P06401 whole entry): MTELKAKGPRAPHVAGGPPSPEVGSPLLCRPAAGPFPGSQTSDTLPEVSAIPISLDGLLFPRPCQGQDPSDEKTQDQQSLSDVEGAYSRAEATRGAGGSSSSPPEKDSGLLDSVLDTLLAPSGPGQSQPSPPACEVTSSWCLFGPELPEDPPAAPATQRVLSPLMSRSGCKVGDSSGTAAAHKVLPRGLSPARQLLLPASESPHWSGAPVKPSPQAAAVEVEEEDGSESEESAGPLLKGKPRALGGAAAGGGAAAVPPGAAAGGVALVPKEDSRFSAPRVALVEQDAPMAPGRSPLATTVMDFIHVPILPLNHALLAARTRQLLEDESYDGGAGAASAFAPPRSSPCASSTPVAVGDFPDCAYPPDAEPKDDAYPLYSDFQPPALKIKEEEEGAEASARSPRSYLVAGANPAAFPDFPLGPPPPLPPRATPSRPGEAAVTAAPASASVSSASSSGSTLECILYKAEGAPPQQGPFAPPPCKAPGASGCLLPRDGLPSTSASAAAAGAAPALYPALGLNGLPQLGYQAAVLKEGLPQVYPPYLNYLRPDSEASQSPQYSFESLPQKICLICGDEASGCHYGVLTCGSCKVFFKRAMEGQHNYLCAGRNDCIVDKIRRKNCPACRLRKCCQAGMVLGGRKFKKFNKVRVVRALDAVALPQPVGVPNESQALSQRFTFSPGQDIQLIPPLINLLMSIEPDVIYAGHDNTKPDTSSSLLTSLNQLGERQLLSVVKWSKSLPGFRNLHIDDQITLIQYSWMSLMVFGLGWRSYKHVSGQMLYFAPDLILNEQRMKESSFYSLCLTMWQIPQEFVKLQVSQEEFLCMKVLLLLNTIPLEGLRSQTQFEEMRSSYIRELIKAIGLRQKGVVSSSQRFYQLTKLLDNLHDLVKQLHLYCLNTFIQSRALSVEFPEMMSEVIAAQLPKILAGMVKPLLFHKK
# [7] = molecular target: T4, Equilibrative nucleoside transporter 1 (Homo sapiens, UniProt Q99808)
# T4 sequence (Q99808 whole entry): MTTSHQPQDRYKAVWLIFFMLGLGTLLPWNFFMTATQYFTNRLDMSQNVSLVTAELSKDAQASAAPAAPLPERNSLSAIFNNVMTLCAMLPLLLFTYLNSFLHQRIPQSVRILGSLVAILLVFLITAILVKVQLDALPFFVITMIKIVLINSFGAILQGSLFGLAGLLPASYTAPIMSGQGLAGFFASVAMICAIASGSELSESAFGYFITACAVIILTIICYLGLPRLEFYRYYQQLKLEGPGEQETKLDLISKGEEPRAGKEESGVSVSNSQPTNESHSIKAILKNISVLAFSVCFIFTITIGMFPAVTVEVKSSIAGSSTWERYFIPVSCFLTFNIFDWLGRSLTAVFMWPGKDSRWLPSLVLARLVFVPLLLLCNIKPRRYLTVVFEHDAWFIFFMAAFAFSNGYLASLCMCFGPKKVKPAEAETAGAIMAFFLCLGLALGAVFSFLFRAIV
# [8] = molecular target: Vasopressin V1a receptor (Homo sapiens, UniProt P37288)
# Sequence of Vasopressin V1a receptor (P37288 whole entry): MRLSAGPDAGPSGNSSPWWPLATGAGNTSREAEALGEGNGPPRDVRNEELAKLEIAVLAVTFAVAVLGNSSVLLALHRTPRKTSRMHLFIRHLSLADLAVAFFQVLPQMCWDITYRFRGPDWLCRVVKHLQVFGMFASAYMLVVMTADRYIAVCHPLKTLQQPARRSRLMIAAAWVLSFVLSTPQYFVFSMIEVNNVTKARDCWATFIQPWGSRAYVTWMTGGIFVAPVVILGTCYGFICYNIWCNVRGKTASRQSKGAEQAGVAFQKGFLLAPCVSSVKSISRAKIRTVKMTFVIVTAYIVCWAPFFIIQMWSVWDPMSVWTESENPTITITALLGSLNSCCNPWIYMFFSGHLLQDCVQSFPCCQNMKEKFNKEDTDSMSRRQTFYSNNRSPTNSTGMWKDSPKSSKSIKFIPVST
# [9] = molecular target: Voltage-dependent L-type calcium channel subunit alpha-1C (Rattus norvegicus, UniProt P22002); format: functional
# Sequence of Voltage-dependent L-type calcium channel subunit alpha-1C (P22002 whole entry): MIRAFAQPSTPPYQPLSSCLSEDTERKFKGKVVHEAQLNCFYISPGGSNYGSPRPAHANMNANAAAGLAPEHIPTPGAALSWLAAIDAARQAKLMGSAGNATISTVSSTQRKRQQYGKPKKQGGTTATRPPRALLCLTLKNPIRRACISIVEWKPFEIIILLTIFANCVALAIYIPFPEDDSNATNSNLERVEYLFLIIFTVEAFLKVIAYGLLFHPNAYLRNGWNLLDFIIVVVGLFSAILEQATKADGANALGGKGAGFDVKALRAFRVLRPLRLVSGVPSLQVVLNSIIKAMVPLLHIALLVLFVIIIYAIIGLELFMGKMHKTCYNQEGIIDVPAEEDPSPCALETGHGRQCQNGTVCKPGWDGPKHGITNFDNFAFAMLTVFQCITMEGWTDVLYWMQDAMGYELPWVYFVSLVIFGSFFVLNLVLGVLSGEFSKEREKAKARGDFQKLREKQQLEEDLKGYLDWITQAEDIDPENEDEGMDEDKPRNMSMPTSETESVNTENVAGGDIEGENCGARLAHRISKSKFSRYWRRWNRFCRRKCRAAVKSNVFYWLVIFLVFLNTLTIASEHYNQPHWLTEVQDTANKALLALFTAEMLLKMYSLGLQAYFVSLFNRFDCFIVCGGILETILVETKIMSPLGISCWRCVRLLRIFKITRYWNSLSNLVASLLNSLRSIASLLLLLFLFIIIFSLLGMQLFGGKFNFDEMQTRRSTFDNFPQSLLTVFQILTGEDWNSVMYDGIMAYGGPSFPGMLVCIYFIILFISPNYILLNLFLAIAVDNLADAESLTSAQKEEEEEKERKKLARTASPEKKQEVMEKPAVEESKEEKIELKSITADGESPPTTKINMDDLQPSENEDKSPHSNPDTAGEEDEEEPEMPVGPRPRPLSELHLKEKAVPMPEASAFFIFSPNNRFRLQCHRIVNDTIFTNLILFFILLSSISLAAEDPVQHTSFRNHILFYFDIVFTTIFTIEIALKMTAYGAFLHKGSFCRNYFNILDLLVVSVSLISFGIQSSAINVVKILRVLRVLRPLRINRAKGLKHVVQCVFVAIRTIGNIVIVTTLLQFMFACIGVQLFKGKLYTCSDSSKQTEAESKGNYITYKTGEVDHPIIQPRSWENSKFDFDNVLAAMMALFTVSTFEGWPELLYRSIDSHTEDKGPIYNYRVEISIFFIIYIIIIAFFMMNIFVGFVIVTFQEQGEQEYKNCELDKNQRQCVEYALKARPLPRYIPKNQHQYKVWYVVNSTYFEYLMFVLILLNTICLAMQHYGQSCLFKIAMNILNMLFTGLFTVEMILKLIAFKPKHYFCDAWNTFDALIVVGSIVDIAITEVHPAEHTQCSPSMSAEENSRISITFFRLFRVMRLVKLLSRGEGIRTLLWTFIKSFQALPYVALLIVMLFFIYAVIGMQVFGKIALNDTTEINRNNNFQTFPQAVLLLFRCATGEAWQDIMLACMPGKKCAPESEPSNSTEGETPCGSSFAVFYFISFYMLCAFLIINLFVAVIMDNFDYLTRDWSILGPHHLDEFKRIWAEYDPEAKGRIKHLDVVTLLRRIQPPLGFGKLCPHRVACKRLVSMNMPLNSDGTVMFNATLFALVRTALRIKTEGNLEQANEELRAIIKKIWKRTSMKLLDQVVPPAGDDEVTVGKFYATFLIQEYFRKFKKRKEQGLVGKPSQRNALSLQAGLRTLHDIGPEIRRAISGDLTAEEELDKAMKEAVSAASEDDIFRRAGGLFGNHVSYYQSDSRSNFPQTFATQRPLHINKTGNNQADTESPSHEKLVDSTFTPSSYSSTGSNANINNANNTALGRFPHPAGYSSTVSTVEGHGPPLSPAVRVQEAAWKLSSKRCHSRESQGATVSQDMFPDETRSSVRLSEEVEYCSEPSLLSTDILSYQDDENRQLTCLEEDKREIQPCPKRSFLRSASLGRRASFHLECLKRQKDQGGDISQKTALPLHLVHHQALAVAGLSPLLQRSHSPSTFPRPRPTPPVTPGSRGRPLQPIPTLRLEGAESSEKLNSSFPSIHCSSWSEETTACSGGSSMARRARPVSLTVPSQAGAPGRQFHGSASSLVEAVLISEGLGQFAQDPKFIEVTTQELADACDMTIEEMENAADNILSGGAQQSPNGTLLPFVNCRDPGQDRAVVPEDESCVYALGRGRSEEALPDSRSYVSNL
# [10] = molecular target: Motilin receptor (Homo sapiens, UniProt O43193)
# Sequence of Motilin receptor (O43193 whole entry): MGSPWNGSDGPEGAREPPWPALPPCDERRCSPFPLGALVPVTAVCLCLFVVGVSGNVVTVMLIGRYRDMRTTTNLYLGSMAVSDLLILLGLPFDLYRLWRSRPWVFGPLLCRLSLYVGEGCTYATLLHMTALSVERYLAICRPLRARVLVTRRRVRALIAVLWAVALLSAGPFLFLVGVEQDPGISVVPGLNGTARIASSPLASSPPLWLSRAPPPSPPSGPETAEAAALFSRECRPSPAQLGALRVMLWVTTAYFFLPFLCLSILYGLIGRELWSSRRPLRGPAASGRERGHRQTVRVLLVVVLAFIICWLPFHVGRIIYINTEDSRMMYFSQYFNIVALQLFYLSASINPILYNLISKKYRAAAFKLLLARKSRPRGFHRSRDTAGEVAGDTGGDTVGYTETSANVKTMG
# [11] = molecular target: T3, Progesterone receptor; format: functional; remark: listed apart in the source
# Further: assay procedure not described here.
# Sequence of Sodium-dependent serotonin transporter (P31645 whole entry): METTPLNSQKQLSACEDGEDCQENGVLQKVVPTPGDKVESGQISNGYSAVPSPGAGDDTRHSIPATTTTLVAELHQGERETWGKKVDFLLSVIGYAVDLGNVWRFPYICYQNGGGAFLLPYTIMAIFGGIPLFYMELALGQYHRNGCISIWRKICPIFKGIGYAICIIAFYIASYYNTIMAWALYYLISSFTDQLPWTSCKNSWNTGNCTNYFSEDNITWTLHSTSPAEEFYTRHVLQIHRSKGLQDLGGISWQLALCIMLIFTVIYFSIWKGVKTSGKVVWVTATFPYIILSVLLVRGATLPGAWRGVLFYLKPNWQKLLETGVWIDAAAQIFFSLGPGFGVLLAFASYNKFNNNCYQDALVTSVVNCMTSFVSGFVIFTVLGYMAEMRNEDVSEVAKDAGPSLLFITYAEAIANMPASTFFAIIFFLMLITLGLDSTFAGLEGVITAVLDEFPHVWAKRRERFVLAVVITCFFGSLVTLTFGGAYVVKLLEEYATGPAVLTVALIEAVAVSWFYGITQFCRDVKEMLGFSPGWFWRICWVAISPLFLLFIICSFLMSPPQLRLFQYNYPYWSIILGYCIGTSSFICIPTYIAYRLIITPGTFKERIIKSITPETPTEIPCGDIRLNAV
structure (smiles),measurement,setting,value
C=CCN1CC[C@]23CCCC[C@H]2[C@H]1Cc1ccc(O)cc13 [LEVALLORPHAN],AC50,[1],> 30 µM
Nc1ccc(C(=O)Oc2ccccc2)c(O)c1 [PHENYL AMINOSALICYLATE],AC50,[1],> 30 µM
Cc1onc(-c2ccccc2)c1C(=O)N[C@@H]1C(=O)N2[C@@H]1SC(C)(C)[C@@H]2C(=O)O [OXACILLIN],AC50,[1],> 30 µM
CC(=O)Oc1cc(C(F)(F)F)ccc1C(=O)O [TRIFLUSAL],AC50,[1],> 30 µM
Cc1ccccc1C(=O)Nc1ccc(C(=O)N2CCCC(N(C)C)c3ccccc32)cc1 (configuration not stated) [MOZAVAPTAN],AC50,[1],1.26 µM
CCOC(=O)C1=C[C@@H](OC(CC)CC)[C@H](NC(C)=O)[C@@H](N)C1 [OSELTAMIVIR],AC50,[1],> 30 µM
CN1CCC(=C2c3ccccc3Sc3ccccc32)CC1 [PIMETHIXENE],AC50,[1],18.3 µM
COc1c2ccoc2cc2oc(=O)ccc12 [BERGAPTEN],AC50,[1],> 30 µM
CCc1nc(C(N)=O)c(Nc2ccc(N3CCC(N4CCN(C)CC4)CC3)c(OC)c2)nc1NC1CCOCC1 [GILTERITINIB],AC50,[1],> 30 µM
CC(C)(O)CNc1nc(Nc2ccnc(C(F)(F)F)c2)nc(-c2cccc(C(F)(F)F)n2)n1 [ENASIDENIB],AC50,[1],> 30 µM
C/C=C/C/C=C/CCC(=O)[C@H]1O[C@H]1C(N)=O [CERULENIN],AC50,[1],> 30 µM
CC(CN1CC(=O)NC(=O)C1)N1CC(=O)NC(=O)C1 (configuration not stated) [RAZOXANE],AC50,[1],> 30 µM
O=C(O)c1cc(/N=N/c2ccc(O)c(C(=O)O)c2)ccc1O [OLSALAZINE],AC50,[1],> 30 µM
N[C@@H](CS)C(=O)O [CYSTEINE],AC50,[1],> 30 µM
CC[C@H](C)C[C@H](C)CCCCCCCCC(=O)N[C@H]1C[C@@H](O)[C@@H](NCCN)NC(=O)[C@@H]2[C@@H](O)CCN2C(=O)[C@H]([C@H](O)CCN)NC(=O)[C@H]([C@H](O)[C@@H](O)c2ccc(O)cc2)NC(=O)[C@@H]2C[C@@H](O)CN2C(=O)[C@H]([C@@H](C)O)NC1=O [CASPOFUNGIN],AC50,[1],> 30 µM
CC[C@H]1OC(=O)[C@H](C)C(=O)[C@H](C)[C@@H](O[C@@H]2O[C@H](C)C[C@H](N(C)C)[C@H]2O)[C@](C)(OC)C[C@@H](C)C(=O)[C@H](C)[C@H]2N(CCCCn3cnc(-c4cccnc4)c3)C(=O)O[C@]12C [TELITHROMYCIN],AC50,[1],> 30 µM
OC[C@H]1O[C@@H](c2ccc(F)c(Cc3cc4ccccc4s3)c2)[C@H](O)[C@@H](O)[C@@H]1O [IPRAGLIFLOZIN],AC50,[1],> 30 µM
O=C1/C(=C2\Nc3ccc(S(=O)(=O)O)cc3C2=O)Nc2ccc(S(=O)(=O)O)cc21 [INDIGOTINDISULFONATE],AC50,[1],> 30 µM
C#C[C@]1(O)CC[C@H]2[C@@H]3CCC4=CC(=O)CC[C@@H]4[C@H]3C(=C)C[C@@]21CC [ETONOGESTREL],AC50,[2],> 30 µM
same,AC50,[3],> 30 µM
same,AC50,[4],> 30 µM
same,AC50,[5],> 30 µM
same,AC50,[1],> 30 µM
CC[C@H](c1ccc(O)cc1)[C@@H](CC)c1ccc(O)cc1 [HEXESTROL],AC50,[1],> 30 µM
CNC(=O)Oc1cccc2ccccc12 [CARBARIL],AC50,[1],> 30 µM
CC(C)OC(=O)CCC/C=C\C[C@@H]1[C@@H](/C=C/C(F)(F)COc2ccccc2)[C@H](O)C[C@@H]1O [TAFLUPROST],AC50,[1],> 30 µM
C[C@@H]1C[C@H]2[C@@H]3CCC4=CC(=O)C=C[C@]4(C)[C@@]3(Cl)[C@@H](O)C[C@]2(C)[C@@]1(OC(=O)c1ccco1)C(=O)CCl [MOMETASONE FUROATE],AC50,[1],> 30 µM
CC(=O)O[C@]1(C(C)=O)CC[C@H]2[C@@H]3C=C(C)C4=CC(=O)CC[C@@H]4[C@H]3CC[C@@]21C [NOMEGESTROL ACETATE],AC50,[2],> 30 µM
same,AC50,[3],> 30 µM
same,AC50,[5],> 30 µM
same,AC50,[6],0.028 µM
same,AC50,[7],> 30 µM
same,AC50,[1],> 30 µM
OC[C@H]1O[C@@H](c2ccc(Cl)c(Cc3ccc(O[C@H]4CCOC4)cc3)c2)[C@H](O)[C@@H](O)[C@@H]1O [EMPAGLIFLOZIN],AC50,[1],> 30 µM
CC(C(=O)O)c1ccc2c(c1)[nH]c1ccc(Cl)cc12 (configuration not stated) [CARPROFEN],AC50,[2],> 10 µM
same,AC50,[8],> 30 µM
same,AC50,[9],> 10 µM
same,AC50,[3],> 10 µM
same,AC50,[4],> 10 µM
same,AC50,[10],> 30 µM
same,AC50,[5],> 30 µM
same,AC50,[6],> 30 µM
same,AC50,[11],> 30 µM
same,AC50,[7],> 30 µM
CC(C)C[C@H](NC(=O)CNC(=O)c1cc(Cl)ccc1Cl)B(O)O [IXAZOMIB],AC50,[1],> 30 µM
CC[C@@]1(O)C(=O)OCc2c1cc1n(c2=O)Cc2cc3c([N+](=O)[O-])cccc3nc2-1 [RUBITECAN],AC50,[1],> 30 µM
CCn1cc(C(=O)O)c(=O)c2cc3c(cc21)OCO3 [OXOLINIC ACID],AC50,[1],> 30 µM
FC(F)(F)c1ccc(CNc2ccc(Cc3c[nH]c4ncc(Cl)cc34)cn2)cn1 [PEXIDARTINIB],AC50,[1],8 µM
CN(C)CC[C@@H](c1ccc(Cl)cc1)c1ccccn1 [DEXCHLORPHENIRAMINE],AC50,[2],> 30 µM
same,AC50,[8],> 30 µM
same,AC50,[9],> 30 µM
same,AC50,[3],> 30 µM
same,AC50,[4],22 µM
same,AC50,[10],> 30 µM
same,AC50,[5],> 30 µM
same,AC50,[6],> 30 µM
same,AC50,[11],> 30 µM
same,AC50,[7],> 30 µM
CN(CC1(C)CCCO1)S(=O)(=O)c1ccc(Cl)c(S(N)(=O)=O)c1 (configuration not stated) [MEFRUSIDE],AC50,[2],> 30 µM
same,AC50,[3],> 30 µM
same,AC50,[4],> 30 µM
same,AC50,[5],> 30 µM
same,AC50,[1],> 30 µM
N[C@@H](CO)C(=O)O [SERINE],AC50,[1],> 30 µM
CCOC(=O)c1c(C)cc2c(CO)n[nH]c(=O)c2c1C [OXAGRELATE],AC50,[1],> 30 µM
CN1CCCCC1CCN1c2ccccc2Sc2ccc([S+](C)[O-])cc21 (configuration not stated) [MESORIDAZINE],AC50,[1],> 30 µM
COc1ccccc1Oc1c(NS(=O)(=O)c2ccc(C(C)(C)C)cc2)nc(-c2ncccn2)nc1OCCO [BOSENTAN],AC50,[2],> 10 µM
same,AC50,[8],> 30 µM
same,AC50,[9],> 10 µM
same,AC50,[3],> 10 µM
same,AC50,[4],> 10 µM
same,AC50,[10],> 10 µM
same,AC50,[5],> 30 µM
same,AC50,[6],> 30 µM
same,AC50,[11],> 30 µM
same,AC50,[7],> 30 µM
O=C1CN(/N=C/c2ccc(-c3ccc([N+](=O)[O-])cc3)o2)C(O)=N1 [DANTROLENE],AC50,[2],> 10 µM
same,AC50,[8],> 10 µM
same,AC50,[9],> 10 µM
same,AC50,[3],> 10 µM
same,AC50,[4],> 10 µM
same,AC50,[10],> 10 µM
same,AC50,[5],> 30 µM
same,AC50,[6],> 10 µM
same,AC50,[11],> 10 µM
same,AC50,[7],> 10 µM
[H]/N=C(\N/C(=N/[H])Nc1ccc(Cl)cc1)NC(C)C [PROGUANIL],AC50,[1],22.8 µM
